Measured values taken from patent US20250171434A1, “SEC61 INHIBITORS AND USE THEREOF” (KEZAR LIFE SCIENCES, INC., priority 2022, published 2025).
Like-named read-outs stand apart in the source and are kept apart here.

Legend:
[1] = test system: IL-2-FL/Gaussia Luciferase; assay: Dox Inducible IL2-FL-Gluc Assay; type: cell-based
How it was run: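 Flp-In 293 T-REx cells stably carrying doxycycline-inducible full-length IL-2 (aa 1-153) fused at its C-terminus to Gaussia luciferase, selected with hygromycin and blasticidin. Cells were plated the day before, then treated with compounds in DMSO/media containing doxycycline at 37° C, 5% CO2.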

[2] = test system: multiple myeloma cell line NCI-H929; assay: H929 Cell Viability Assay; type: cell-based, human; details: Homo sapiens
How it was run: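 NCI-H929 cells, resuspended in RPMI 1640 with 10% FBS and 2 mM glutamine, were treated with compound dilutions in DMSO/media and incubated 48 hours at 37° C, 5% CO2. Viability was read by CellTiter-Glo luminescence. Compounds drawn without stereochemistry were tested as stereoisomer mixtures.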

[3] = Liver Microsome Stability Assay, rat; type: in vitro ADME; details: rat liver microsomes 1.0 mg/mL, 1.0 uM compound, 37° C., 1 mM NADPH
How it was run: (§1)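 Incubations at 37° C contain 1.0 mg/mL liver microsomes and 1.0 uM compound, with 1 mM NADPH present or absent. Time points are 0 and 30 minutes.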

[4] = test system: HER3-ss+4aa/Gaussia Luciferase; assay: Dox-Inducible Her3-ss-Gluc Assay; type: cell-based
Text: Flp-In 293 T-REx™ cells were transfected with pcDNA™5/FRT/TO plasmid inserted with cDNA encoding Gaussia Luciferase fused to the 3′ end of cDNA encoding HER3 signal sequence plus 4 amino acids (N-[…]-C) (SEQ ID NO: 2). Transfected cells were selected for resistance to the selectable markers Hygromycin and Blasticidin to create a stable cell line that contained the HER3-ss+4aa/Gaussia Luciferase cDNA insert whose expression was regulated under the T-REx™ system. The day before assay, cells were trypsinized and plated in 384-well tissue culture plates. The next day, compound dilutions in DMSO/media containing doxycycline were added to the wells and incubated at 37° C., 5% CO2.
(§2) For chemical structures that include one or more stereoisomers, but are illustrated without indicating stereochemistry, the assay data refers to a mixture of stereoisomers.

[5] = test system: TNFα-FL/Gaussia Luciferase; assay: Dox Induced TNFα-FL-Gluc Assay; type: cell-based
Text: Flp-In 293 T-REx™ cells were transfected with pcDNA™5/FRT/TO plasmid inserted with cDNA encoding Gaussia Luciferase fused to the 3′ end of cDNA encoding full length TNFα (amino acids 1-233). Transfected cells were selected for resistance to the selectable markers Hygromycin and Blasticidin to create a stable cell line that contained the TNFα-FL/Gaussia Luciferase cDNA insert whose expression was regulated under the T-REx™ system. The day before assay, cells were trypsinized and plated in 384-well tissue culture plates. The next day, compound dilutions in DMSO/media containing doxycycline were added to the wells and incubated at 37° C., 5% CO2.
as §2

[6] = Liver Microsome Stability Assay, mouse; type: in vitro ADME; details: mouse liver microsomes 1.0 mg/mL, 1.0 uM compound, 37° C., 1 mM NADPH
How it was run: as §1

[7] = test system: PD1-ss+10aa/Gaussia Luciferase; assay: Dox-Induced PD1-ss-Gluc Assay; type: cell-based
How it was run: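 Flp-In 293 T-REx, stable line; Tet-regulated PD1-ss+10aa fused to Gaussia luciferase; plated day prior; cpd + doxycycline in DMSO/media; 37 °C, 5% CO2.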

[8] = test system: multiple myeloma cell line U266B1; assay: U266 Cell Viability Assay; type: cell-based; details: Homo sapiens
How it was run: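 Cells grown in RPMI 1640 with 10% FBS, 2 mM glutamine and penicillin/streptomycin were exposed to compound dilutions in DMSO/media for 48 hours at 37° C., 5% CO2. Viability was read by CellTiter-Glo luminescence. Undefined stereocentres mean data for stereoisomer mixtures.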

[9] = Liver Microsome Stability Assay, human; type: in vitro ADME; details: human liver microsomes 1.0 mg/mL, 1.0 uM compound, 37° C., 1 mM NADPH
How it was run: as §1

[10] = Liver Microsome Stability Assay, monkey; type: in vitro ADME; details: monkey liver microsomes 1.0 mg/mL, 1.0 uM compound, 37° C., 1 mM NADPH
How it was run: as §1

[11] = ratio of IC50s IL2/PD1; Table 3
[12] = read-out: 24 hr Dox Inducible IL2FLGluc 293FRT/TO: Mean IC50; Flp-In 293 T-REx cells, 24 hours with doxycycline; Table 3
[13] = NCI-H929, 48 h, read-out: 48 hr H929 Viability Celltiter-Glo: Mean EC50 (nM)
[14] = read-out: 24 hr Dox Inducible Her3(ss + 4)Gluc 293FRT/TO: Mean IC50; Flp-In 293 T-REx cells, 24 hours with doxycycline; Table 3
[15] = ratio of IC50s TNF/PD1; Table 3
[16] = read-out: 24 hr Dox Inducible TNFaFLGluc 293FRT/TO: Mean IC50; Flp-In 293 T-REx cells, 24 hours with doxycycline; Table 3
[17] = read-out: 24 hr Dox Inducible PD1ssGluc 293FRT/TO: Mean IC50; Flp-In 293 T-REx cells, 24 hours with doxycycline; Table 3
[18] = U-266, 48 h, read-out: 48 hr U266 Viability Celltiter-Glo: Mean EC50 (nM)
[19] = Flp-In 293 T-REx cells, 24 hours with doxycycline; Table 3; read-out: 24 hr Dox Inducible IL2FLGluc 293FRT/TO: Mean IC50
[20] = NCI-H929 cells, 48 hours, Celltiter-Glo, read-out: 48 hr H929 Viability Celltiter-Glo: Mean EC50
[21] = Flp-In 293 T-REx cells, 24 hours with doxycycline; Table 3; read-out: 24 hr Dox Inducible Her3(ss + 4)Gluc 293FRT/TO: Mean IC50
[22] = Flp-In 293 T-REx cells, 24 hours with doxycycline; Table 3; read-out: 24 hr Dox Inducible TNFaFLGluc 293FRT/TO: Mean IC50
[23] = Flp-In 293 T-REx cells, 24 hours with doxycycline; Table 3; read-out: 24 hr Dox Inducible PD1ssGluc 293FRT/TO: Mean IC50
[24] = U-266, U266B1 cells, 48 hours, Celltiter-Glo, read-out: 48 hr U266 Viability Celltiter-Glo: Mean EC50

Compound	24 hr Dox Inducible IL2FLGluc 293FRT/TO: IL2/PD1 [1, 11]	IC50 [1, 12]	EC50 [2, 13]	Liver Microsome Stability (Multiple Species): Rat - % Remaining after 30 min w/ NADPH (%) [3]	IC50 [4, 14]	24 hr Dox Inducible TNFaFLGluc 293FRT/TO: TNF/PD1 [5, 15]	IC50 [5, 16]	Liver Microsome Stability (Multiple Species): Mouse - % Remaining after 30 min w/ NADPH (%) [6]	IC50 [7, 17]	EC50 [8, 18]	Liver Microsome Stability (Multiple Species): Human - % Remaining after 30 min w/ NADPH (%) [9]	Liver Microsome Stability (Multiple Species): Monkey - % Remaining after 30 min w/ NADPH (%) [10]	IC50 [1, 19]	EC50 [2, 20]	IC50 [4, 21]	IC50 [5, 22]	IC50 [7, 23]	EC50 [8, 24]
O=C(Nc1nc(/C=C/c2ncoc2CO)cs1)c1cccn1Cc1ccnc(F)c1 [Compound B1, (E)-1-((2-fluoropyridin-4-yl)methyl)-N-(4-(2-(5-(hydroxymethyl)oxazol-4-yl)vinyl)thiazol-2-yl)-1H-pyrrole-2-carboxamide]	>2.8	> 25000 nM	> 25000 nM	3%	> 25000 nM	>2	> 25 µM	29%	8930 nM	> 25000 nM	10%	2%	–	–	–	–	–	–
CC(C)n1cnc(F)c1/C=C/c1csc(NC(=O)c2cccn2Cc2ccnc(F)c2)n1 [Compound B2, (E)-N-(4-(2-(4-fluoro-1-isopropyl-1H-imidazol-5-yl)vinyl)thiazol-2-yl)-1-((2-fluoropyridin-4-yl)methyl)-1H-pyrrole-2-carboxamide]	2	6640 nM	> 25000 nM	8%	6400 nM	>5	> 25 µM	6%	4480 nM	> 25000 nM	<1%	<1%	–	–	–	–	–	–
O=C1CCn2cc(/C=C/c3csc(NC(=O)c4cccn4Cc4ccnc(F)c4)n3)nc2N1 [Compound B3, (E)-1-((2-fluoropyridin-4-yl)methyl)-N-(4-(2-(7-oxo-5,6,7,8-tetrahydroimidazo[1,2-a]pyrimidin-2-yl)vinyl)thiazol-2-yl)-1H-pyrrole-2-carboxamide]	>39	–	–	19%	–	>38	–	53%	–	–	<1%	1%	> 25000 nM	> 25000 nM	> 25000 nM	> 25 µM	644 nM	> 25000 nM
O=C(Nc1nc(/C=C/c2ccc(OC(F)F)cn2)cs1)c1cccn1Cc1ccnc(F)c1 [Compound B4, (E)-N-(4-(2-(5-(difluoromethoxy)pyridin-2-yl)vinyl)thiazol-2-yl)-1-((2-fluoropyridin-4-yl)methyl)-1H-pyrrole-2-carboxamide]	130	–	–	1%	–	544	–	7%	–	–	<1%	<1%	1650 nM	8750 nM	816 nM	7.04 µM	13 nM	19400 nM
O=C(Nc1nc(/C=C/c2ccc(C(F)(F)F)cn2)cs1)c1cccn1Cc1ccnc(F)c1 [Compound B5, (E)-1-((2-fluoropyridin-4-yl)methyl)-N-(4-(2-(5-(trifluoromethyl)pyridin-2-yl)vinyl)thiazol-2-yl)-1H-pyrrole-2-carboxamide]	70	–	–	20%	–	230	–	20%	–	–	4%	<1%	1200 nM	> 25000 nM	553 nM	3.94 µM	17 nM	> 25000 nM
O=C(Nc1nc(/C=C/c2ccc(OC3CC3)cc2F)cs1)c1cccn1Cc1ccnc(F)c1 [Compound B6, (E)-N-(4-(4-cyclopropoxy-2-fluorostyryl)thiazol-2-yl)-1-((2-fluoropyridin-4-yl)methyl)-1H-pyrrole-2-carboxamide]	9	–	–	41%	–	14	–	63%	–	–	42%	24%	265 nM	> 25000 nM	137 nM	0.445 µM	31 nM	> 25000 nM
